“Also recorded” adds a separate entry of the source. Like-named read-outs stand apart in the source and are kept apart here.
What was measured:
[1] = system: T47D-KBluc cells; test: cells; conditions: ERLUX
Experimental: T47D-KBluc cells were obtained from the ATCC and the protocol established by the depositing authors was followed. Cells were routinely grown in RPMI media (with 10% foetal calf serum (FCS)). For seven days prior to experiments, cells were maintained in low estrogen conditions by the use of pre-assay media (RPMI, 10% charcoal-dextran stripped FCS, no antibiotics). For experiments, cells were seeded in white polystyrene 96 well plates at a density of 10,000 cells/well and allowed to attach for 24 hours before removal of media, and application of test chemicals. Test chemicals were dissolved in ethanol to give stock solutions of millimolar concentrations. Test and control solutions were obtained by dilution of ethanolic stocks in dosing media (phenol red-free RPMI, 5% charcoal-dextran stripped FCS, no antibiotics), and in all cases the final concentration of ethanol was 0.5%. The positive control was 1 nM estradiol. Positive and vehicle controls were run as eight replicate wells per plate, and compounds were tested in a dilution series comprising eight concentrations, each concentration tested in triplicate. As recommended by Wilson et al. two additional controls were also included on each plate: 1) vehicle control plus an antiestrogen, ICI 182,780 (1 µM), and 2) positive control plus ICI 182,780 (1 µM). […] A crude measure of toxicity was provided by comparing values for treatments that were not positive, with the value of the vehicle control. […] 24 hours after application of test and control solutions, a volume of Steady-Glo assay reagent (Promega) equal to the volume of culture media was added and plates were incubated for ten minutes, with shaking, to allow for cell lysis. Plates were then loaded into a plate reader (FLUOstar Optima, BMG Labtech) and incubated for a further ten minutes in the dark, followed by measurement of luminescence. To reduce variation, the temperature of the plate reader chamber was maintained at 27°C throughout.
(§1) Experiments were performed on different days meaning that results for different dilution series and different batches of the test chemicals were obtained on different days. Each single chemical was tested in three or more independent experiments. Use of normalisation meant that data from different experiments could be reliably combined and compared, as discussed previously. Data was expressed relative to the positive control, rather than as fold change from the vehicle response, for two reasons.
Effect concentrations (ECx) were defined relative to the effects of the estradiol concentration used as the positive control, for example EC50 is the concentration producing an effect of 50% of the positive control (estradiol, 1 nM (ERLUX) or 25 nM (ESCREEN)).
(§2) Results from regression analysis for each test chemicals were used to predict the CA effect for fixed-ratio mixtures designed on 1) equi-effective concentrations (balanced design), 2) possible human serum levels (non-balanced design). The original mathematical formulation of CA that defines for a mixture composed of n components with concentration c1 of the first component, c2 of the second component, and cn for the n-th component a combination effect X is [drawing 1] (1) Here, ECX1, ECX1 …, ECXn are the concentrations of the individual components that on their own produce the same effect X as the mixture, [15] The quotients cn/ECXn are called toxic units and scale all compounds in the mixture relative to their toxicity. They can be interpreted as the contribution of the compound to the total mixture concentration that is expected to produce the mixture effect X. According to equation 1, a mixture effect for a pre-defined effect level X is described only implicitly.

[2] = system: MCF-7 cells; test: Estrogenicity assay, mitogenic endpoint (ESCREEN); conditions: for Signs of estrogenicity: Active at concentration: ‘Active’ = positive signal clearly distinguishable from assay variability and noise; for Signs of estrogenicity (in words): chemical screened as potential modulator, tested alone
Experimental: The ESCREEN assay was performed using cloned MCF-7 cells (described in [6], gifted from A. Soto, Boston) and the established ESCREEN method was followed using an adapted 96-well format. Cells were cultured in DMEM (5% FCS). For experiments, cells were seeded in clear polystyrene 96 well plates at a density of 2,500 cells/well and allowed to attach for 24 hours before washing with rinse media (phenol red-free DMEM, no supplements). […] Test chemicals were dissolved in ethanol to give stock solutions of millimolar concentrations. Test and control solutions were diluted prior to application in dosing media (phenol red free DMEM, 10% charcoal-dextran stripped FCS). The final concentration of ethanol was 0.5% in test and control wells. […] At all stages, media removal from cells was carried out gently and in a controlled fashion by use of an electronic multichannel pipette set to the lowest speed possible. Controls were run as eight replicate wells per plate and compounds were tested in a dilution series comprising eight concentrations, each concentration tested in two replicate wells per plate. The plate layout was designed to reduce variation due to evaporation and spreading of test chemicals, and had been previously optimised in the laboratory. After application of test solutions, plates were incubated for 120 hours before fixation with 10% trichloroacetic acid and sulforhodamine B (SRB) staining to measure protein and allow the indirect quantification of cell number.
as §1
as §2, with “implicitly. However, if the individual concentrations ci are expressed as relative fractions pi to the total mixture concentration ECxMix, then equation 1 can be re-arranged to [drawing 2] (2) which allows the direct calculation of the mixture concentration that is expected to produce the mixture effect X. To form a prediction curve, equation 2 is iterated through for various effect levels resulting in sets of effects and their associated predicted mixture concentration which are then plotted to produce a graph of the effect prediction.” for “implicitly.”
Both equations 1 and 2 require knowledge of the concentration of each mixture component that on its own produces the effect magnitude under consideration. For this reason, these equations cannot be used for predicting mixture effects that exceed the maximal effect of the least efficacious component, because those effect concentrations cannot be defined.

[3] = system: MCF-7 cells; test: Modulation studies (ESCREEN only): effect of potential modulators on the response evoked by a reference mixture of estrogens (REFmix); type: cell-based, human; conditions: for Modulation of the REFmix effect (in words) / Concentration at which suppression of the ESCREEN response to REFmix began: ESCREEN; for Observed modulation: ESCREEN response to REFmix (Mixture 3d, ca. 50% effect), screening, one experiment; for Concentration at which suppression of the ESCREEN response to REFmix began: individual modulator screening
From the text: Modulation studies comprised screening of individual modulators in low power experiments accompanied by parallel testing of an equimolar mixture of all modulators. This combination of low power screening and mixture testing provides the opportunity to assess a high number of chemicals (16 in this case) without a prohibitive amount of experimental effort. In this case the effects of 16 modulators could be evaluated using a total of 19 experimental plates (16 for screening and 3 for mixture testing).
To normalize for small changes in the absolute value of the positive control and the control response to the selected REFmix concentration, the response evoked by the REFmix control on each plate was defined as the 50% effect and all modulator study results are normalized to that value.
A mixture of modulators (MODmix) was also tested and was composed with a fixed ratio of equimolar concentrations, since the activity of each modulator was not known at the time of designing the mixture.
In these modulator studies, we examined 16 single chemicals (listed in Table 7) and an equimolar mixture of all 16 components for their ability to modulate the effects of a reference mixture (REFmix) which contained 14 food additives and contaminants (Table 1, Mixture 3d). […] Single chemicals were tested individually in single experiments (screening) and then a mixture composed using a fixed ratio of equal molarities was subjected to repeated testing.
Figure 5 Results of modulation studies. […] Experimental results are shown as grey circles representing each replicate (duplicate testing within the assay) and obtained in three independent (A) or one (B–Q) experiment (s). Experimental results were normalized by setting the value observed for the REFmix alone, the concentration of which was selected to evoke a […] of ca. 50%, to 0.5. The positive control values (black circles, eight replicates per experimental plate, 25 nM estradiol) are indicated adjacent to the y-axis. […] A black line indicates a LOESS spline fit to the data (A–Q) and a grey line indicates linear regression fit to the data for individual modulators (B–Q). A vertical dotted line is drawn at a mixture concentration of 1.6 µM (A) or at the concentration of each modulator present at that mixture concentration (0.1 uM, B–Q). Visual inspection of the individual modulator results (B–Q) was used to identify possible modulation, i.e. when the experimental data appears to deviate from the linear regression, or when the linear regression is not horizontal, and when the magnitude of the modulation is outside the variation expected in the assay.

SMILES	Modulation of the REFmix effect (in words) [3]	Observed modulation [3]	Signs of toxicity (in words) ([2]; ESCREEN)	Signs of estrogenicity (in words) ([2]; ESCREEN)	further results
CCCCOC(=O)c1ccccc1C(=O)OCc1ccccc1 [BBP, Butyl benzyl phthalate]	no indication of negative modulation	None	–	–	Estrogenicity when tested alone (in words) [1]: estrogenic; Concentration at which estrogenic activity seen ([1]; and above): 0.1 to 1 µM; Toxicity (in words) ([1]; crude measure within the assay / dose-response analysis): evidence for toxicity; Signs of toxicity at the highest concentrations (in words) ([2]; ESCREEN, highest concentrations shown in Figure 2, may indicate toxicity): decline in response; Signs of toxicity: Toxic at concentration ([2]; ESCREEN, reduction in signal at concentrations above those showing estrogenicity): Toxic at 100 µM; Signs of estrogenicity: Active at concentration ([2]; ESCREEN): Active at 1 µM or higher
COc1ccc(O)c(C(C)(C)C)c1 [BHA, Butylated hydroxyl anisole]	possible negative modulation	Possible negative	None	None	–
Cc1cc(C(C)(C)C)c(O)c(C(C)(C)C)c1 [BHT, Butylated hydroxytoluene]	possible negative modulation	Possible negative	None	None	–
[Cl][Cd][Cl] [CdCl2, Cadmium chloride]	clear negative modulation; also recorded: showed negative modulation	Clear negative	–	None	Concentration at which suppression of the ESCREEN response to REFmix began [3]: around 10 nM; Suppression of the REFmix effect ([3]; at 10 µM): 80%
Cc1cnc2ccc3c(nc(N)n3C)c2n1 [MeIQx, 2-Amino-3,8-dimethyl imidazo [4,5-f] quinoxaline]	no indication of negative modulation	None	None	None	–
Clc1ccc(-c2ccccc2Cl)cc1 [PCB #8, 2,4′-dichlorobiphenyl (PCB #8)]	no indication of negative modulation	None	None	None	–
Clc1ccc(-c2cc(Cl)c(Cl)c(Cl)c2)cc1Cl [PCB #126, 3,3′,4,4′,5-pentachlorobiphenyl (PCB #126)]	clear negative modulation	Clear negative	None	–	Signs of estrogenicity: Active at concentration ([2]; ESCREEN): Active at 10 µM or higher; Concentration at which suppression of the ESCREEN response to REFmix began [3]: 1–10 nM and around 10 nM; Suppression of the ESCREEN response to REFmix ([3]; at 100 nM, plateau at that level up to 10 µM): 50%
Clc1cc(Cl)c(-c2cc(Cl)c(Cl)cc2Cl)cc1Cl [PCB #153, 2,2′,4,4′,5,5′-hexachloro biphenyl (PCB #153)]	no indication of negative modulation	None	None	None	–
Clc1cc(Cl)c(-c2cc(Cl)c(Cl)c(Cl)c2Cl)cc1Cl [PCB #180, 2,2′,3,4,4′,5,5′-heptachloro biphenyl (PCB #180)]	no indication of negative modulation	None	–	None	Signs of toxicity (in words) [2]: None
O=[N+]([O-])[O-].O=[N+]([O-])[O-].[Pb+2] [Pb(NO3)2, Lead nitrate]	possible negative modulation	Possible negative	None	None	–
Cn1c(N)nc2ncc(-c3ccccc3)cc21 [PhIP, 2-amino-1-methyl-6-phenylimidazo [4,5-b] pyridine]	possible negative modulation	Possible negative	None	None	–
